The text below walks through data of patent publication US10533010B2, “Substituted indole Mcl-1 inhibitors” (Vanderbilt University, priority 2014, dated 2020).

Molecules are shown by their SMILES. pEC50, pIC50: −log10 of the molar value.

Assay [1] has as its system H929. Kind of assay: Apoptosis assay (Caspase 3/7 Glo) H929. It counts as cell-based. The note with it: Homo sapiens, NCI-H929; H929 cells, 3 hours, 5% FBS; read-out: EC50 on cellular caspase 3/7 activation, H929. How it is done: Induction of apoptosis was measured by quantifying caspase 3/7 activity using the commercially available Caspase-Glo reagent (Promega, Madison, Wis., USA). This assay relies on the cleavage of a proluminescent substrate by activated caspases, which is then detected on the BioTek Cytation 3. 5000 cells in 90 μL of media (+5% FBS) are plated in each well of a white 96-well plate and incubated overnight at 37° C. in a tissue culture incubator. The following day, compound is diluted in a 10-pt, 2-fold serial dilution scheme for a final top concentration of 50 μM. 10 μL of compound is added directly to the cell assay plate for a final volume of 100 μL. Columns 11 and 12 are reserved for treatment with DMSO to serve as control wells. Plates are incubated for 3 hours. 100 μL of Caspase-Glo reagent is added to each well and plates are incubated at room temperature, in the dark, for 30 minutes. Luminescence is measured on the Cytation 3. Luminescence values are imported into a template in XLFit (Guildford, Surrey, UK) that uses a four-parameter fit to generate an IC50 value for each compound dilution series on the plate.

Assay [2] deals with recombinant Mcl-1 (residues 172-327) (Homo sapiens (Human), UniProt Q07820). Nature of the assay: Fluorescence polarization anisotropy competition assay (FITC-Bak or FITC-Bim BH3 peptide) with Mcl-1. The following applies: Table 2; Ki bins given in nM; FITC-Bak or FITC-Bim peptide competition; Ki converted from IC50; read-out: Ki for Inhibition of Mcl-1. It counts as binding.
recombinant Mcl-1 (residues 172-327), sequence (Q07820 172-327): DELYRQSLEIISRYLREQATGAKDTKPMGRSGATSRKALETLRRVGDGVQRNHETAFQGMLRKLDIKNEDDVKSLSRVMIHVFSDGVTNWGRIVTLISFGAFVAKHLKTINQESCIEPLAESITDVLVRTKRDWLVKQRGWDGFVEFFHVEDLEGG
For a further assay, the system named is OPM-2. Nature of the assay: Cellular viability (Cell TiterGlo) OPM-2. It counts as cell-based. The note with it: Homo sapiens; OPM-2 cells, 72 hours, 10% FBS; read-out: IC50 on cellular proliferation, OPM-2. How it is done: (§1) Human cancer cell lines ALMC-1, ALMC-2, K562, H929, and OPM-2 were cultured in media supplemented with 10% fetal bovine serum (FBS). To evaluate compound effect on cellular proliferation, cells were plated at 1,000 cells/well in 96-well tissue culture plates in a total volume of 90 μL medium supplemented with 10% FBS (Sigma, Saint Louis, Mo.). 24 hours later, 10 μL of compound (in a 2-fold serial dilution) is added to the cells for a top concentration of 50 μM and a final DMSO concentration <1%. After 72 hours, 50 μL of Cell TiterGlo (Promega, Madison, Wis., USA) reagent is added to each well and plates are incubated at room temperature, in the dark, for 30 minutes. Luminescence is measured on a BioTek Cytation 3. Luminescence values are imported into a template in XLFit (Guildford, Surrey, UK) that uses a four-parameter fit to generate an IC50 value for each compound dilution series on the plate.

Assay [3] concerns H929. Kind of assay: Cellular viability (Cell TiterGlo) H929. It counts as cell-based. The following applies: Homo sapiens, NCI-H929; H929 cells, 72 hours, 10% FBS; read-out: IC50 on cellular proliferation, H929. How it is done: as §1
(Cellular ATP, detected with luciferase, serves as a proxy for viable cell number.)

The test system of a further assay is K562. Nature of the assay: Cellular viability (Cell TiterGlo) K562. It counts as cell-based. The following applies: Homo sapiens; K562 cells, 72 hours, 10% FBS; read-out: IC50 on cellular proliferation, K562. The method, then: as §1
The next assay concerns ALMC-1. Kind of assay: Cellular viability (Cell TiterGlo) ALMC-1. It counts as cell-based. The following applies: Homo sapiens, ALMC1; ALMC-1 cells, 72 hours, 10% FBS; read-out: IC50 on cellular proliferation, ALMC-1. How it is done:
as §1

The subject of a further assay is ALMC-2. Kind of assay: Cellular viability (Cell TiterGlo) ALMC-2. It counts as cell-based. The following applies: Homo sapiens, ALMC2; ALMC-2 cells, 72 hours, 10% FBS; read-out: IC50 on cellular proliferation, ALMC-2. How it is done: as §1

With `Cc1cc(OCCCc2c(C(=O)NC[C@H]3CC[C@H](C(=O)O)CC3)[nH]c3c(-c4c(C)nn(C)c4C)cccc23)cc(C)c1Cl` [I-320, (1R,4R)-4-((3-(3-(4-chloro-3,5-dimethylphenoxy)propyl)-7-(1,3,5-trimethyl-1H-pyrazol-4-yl)-1H-indole-2-carboxamido)methyl)cyclohexane-1-carboxylic acid], the pEC50 with H929 [1] was 5.64. The Ki (as a rule, a measure of affinity in units of concentration, obtained from inhibition or displacement) in assay [2] was below 50 nM.
`Cc1cc(OCCCc2c3n(c4c(-c5c(C)nn(C)c5C)c(Cl)ccc24)CCN(c2cccc(C(=O)O)c2)C3=O)cc(C)c1Cl` [I-178, 3-(7-chloro-10-(3-(4-chloro-3,5-dimethylphenoxy)propyl)-1-oxo-6-(1,3,5-trimethyl-1H-pyrazol-4-yl)-3,4-dihydropyrazino[1,2-a]indol-2(1H)-yl)benzoic acid]: the pIC50 in the assay on OPM-2 is 4.93; with H929 [3] it was 5.06; with K562 it was 4.93; with ALMC-1 it was 5.21; in the assay with ALMC-2, 5.06. Further, the pEC50 with H929 [1] was 5.51. The Ki in assay [2] is below 50 nM.
